Columns and labels:
Pyocyanin = Pyocyanin Inhibition Assay; format: cell-based, P. aeruginosa, strain PA14; conditions: Pseudomonas aeruginosa, PA14, 24 h, read-out: Pyocyanin Inhibition No. IC50 (μM)
Description: Test compounds are dissolved in DMSO at 10 mM and stored at −20° C. until needed. Seven test concentrations from 0.0032 micromolar to 31.6 micromolar are used for each compound.
P. aeruginosa, strain PA14, is inoculated into 5 mL of LB broth in a 15-mL sterile glass culture tube and incubated overnight at 37° C. under shaking (˜240 rpm). The overnight culture is then diluted in LB Broth to give an OD600=0.04 (T0 culture). Colony Forming Units (CFU)/mL of the overnight culture and T0 culture are determined by a series of 1:10 serial dilutions in sterile saline. 4×20 μL of each dilution is seeded on LB agar plates and incubated at 35±2° C. for 20 hours. CFU/mL is determined from the dilution that gives 2 to 50 colonies/20 μL.
For concentration response curve (CRC) experiments, internal standard, 2-((5-nitro-1H-indol-2-yl)thio)-N-(4-phenoxyphenyl)acetamide, a compound previously identified as an MvfR inhibitor (see Example 1 of US 2014-0066454 (WO 2012/116010)), and test compounds are serially diluted in DMSO to 200 times each final concentration (0.5% DMSO fmal), and 1 μL/well is dispensed in duplicate into 2 mL wells of a 96-well deep well plate. 200 μL/well of T0 culture are added to each internal standard/test compound well. Wells containing only T0 culture (200 200 μL/well) are used to determine pyocyanin control level and wells containing only LB broth (blank wells) are also included in the plate.
The plate is sealed and incubated at 37° C. under shaking (˜700 rpm) using a microtiter shaker for 24 hours. At the end of the incubation period, the plate is centrifuged at 4,000 g for 40 minutes at room temperature, 100 μL/well of the supernatant is transferred to a 96-microtiter PS flat-bottom plate, and absorbance at 690 nm is determined using SPECTROstar® Nano microplate reader. Pyocyanin concentration (M) is determined using the equation C=A690/(ε×d), where ε is the Pyocyanin extinction coefficient, at A690 nm ε is 4,310 M^−1 cm^−1 and d is the experimentally derived pathlength. The level of pyocyanin in the presence of test compound is expressed as percentage of inhibition with respect to the control. Curve fitting and IC50 determination were carried out using a four-parameter logistic model using GraphPad Prism v.5.

PQS [1] = test: PQS Inhibition Assay (24 Hour Incubation); format: cell-based, P. aeruginosa PA14 wild-type strain; conditions: Pseudomonas aeruginosa, PA14, 24 h, read-out: PQS (24 hr) IC50 (μM)
Description: Test compounds are dissolved in DMSO at 10 mM and stored at −20° C. until needed. Seven test concentrations from 0.0032 micromolar to 31.6 micromolar are used for each compound. P. aeruginosa PA14 wild-type strain is inoculated into 5 mL LB broth in a 15-mL sterile glass culture tube and incubated overnight at 37° C. under shaking (˜240 rpm). The overnight culture is then diluted in LB Broth to give an OD600=0.04 (T0 culture). Colony Forming Units (CFU)/mL of the overnight culture and T0 culture are determined by a series of 1:10 serial dilutions in sterile saline. 4×20 μL of each dilution is seeded on LB agar plates and incubated at 35±2° C. for 20 hours. CFU/mL is determined from the dilution that gives 2 to 50 colonies/20 μL.
For concentration response curve (CRC) experiments, internal standard (2-((5-nitro-1H-indol-2-yl)thio)-N-(4-phenoxyphenyl)acetamide)) and test compounds are serially diluted in DMSO to give 200 times of each final concentration (0.5% DMSO final), and 1 μL/well is dispensed in duplicate into 2-mL wells of a 96 well deep well plate. 200 μL/well of T0 culture is added to each internal standard/test compound well used to determine PQS control level. Wells containing only LB broth (blank wells) are also included in the plate.
The plate is sealed and incubated at 37° C. for 24 hours under shaking (˜700 rpm) using a microtiter shaker. At the end of the incubation period, 150 μL/well of the deep well plate culture are transferred in a new non-sterile plate, and 150 μL/well of methanol containing tetra-deuterated PQS (D4-PQS) and 2% acetic acid are added to each well. The plate is sealed, shaken at high speed for 5 minutes and centrifuged at 4,000 g for 40 minutes at room temperature. 100 μL/well of the supernatant is then transferred to glass vials (vials crimp 0.2 mL) and kept at 4° C. until LC-MS/MS analysis.
PQSs quantification is carried out by analyzing samples in discrete batches together with spiked standards and blank samples.
Calibration curves are constructed from PQS standards, and respective deuterated PQS is used as an Internal Standards (IS) to calculate the concentration of analytes in the sample and improve the precision of the assay. The back-calculated concentrations of the calibration standards from the calibration curve shall be within ±20% of the nominal values, the range of the analytical method is determined, and the lower and upper limit of quantification specified.
(§1) Liquid chromatography separations are performed using an Agilent HP1100 system (Agilent Technologies) coupled with a CTC PAL Autosampler (CTC Analytics AG). Chromatographic retention is obtained using a monolithic column (Chromolith® RP-18, 50×4.6 mm). The solvent system consists of water containing 0.1% (v/v) formic acid (A) and acetonitrile containing 0.1% (v/v) formic acid (B). The gradient elution profile is chosen as follows: 0 min: 70% A (1500 μL/min), 0.3 min: 70% A (1500 μL/min), 1.3 min: 5% A (2500 μL/min), 1.6 min: 5% A (2500 μL/min).
The MS/MS analysis is performed with an API4000 series mass spectrometer (AB Sciex™) operating in Multiple Reaction Monitoring (MRM) mode and equipped with a TIS ion source. The specific ions monitored are PQS (m/z 260→m/z 175) and D4-PQS (m/z 264→m/z 179). The computer systems used in this study to acquire and quantify data may be an Analyst™ v1.5.
PQS in the presence of different concentrations of test compound are expressed as percentage of inhibition of the basal level in control samples. Curve fitting and IC50 estimations are carried out using a four parameter logistic model using GraphPad Prism v.5 program.

PQS [2] = test: Assay for PQS Inhibition (6 Hour Incubation); format: cell-based, P. aeruginosa PA14 wild-type strain; conditions: Pseudomonas aeruginosa, PA14, 6 h, read-out: PQS (6 hr) IC50 (μM)
Description: (§2) A concentration range with 7 test concentrations is chosen for each test compound. Typically concentration ranges for the PQS and HHQ assays are from 0.03 to 31.6 μM. Compounds are prepared in solvent, usually DMSO, at either 200 or 500 times the final test concentration.
(§3) P. aeruginosa PA14 wild-type strain is inoculated into 5 ml LB broth in a 15 ml sterile glass culture tube and incubated overnight at 37° C. under shaking (˜240 rpm). After overnight incubation, the bacterial culture is diluted in fresh LB broth to an OD600 nm=0.04, and 5 mL aliquots of the diluted bacterial culture are distributed into 15-mL glass tubes. 10 μL of test compound at 500 times the final test concentration or 25 μL of test compound at 200 times the final test concentration or solvent alone is added to each of the bacterial suspension tubes, and the tubes are incubated at 37° C. under shaking (300 rpm) for 6 hours. At the end of the incubation period, a 0.5 mL aliquot of bacterial suspension is transferred from each 15 mL glass tube, after shaking, to a 2 mL polypropylene vial. 0.5 mL of methanol-containing D4-PQS (deuterated-PQS), D4-HHQ (deuterated-HHQ) and 2% acetic acid are added to each 2 mL vial and each vial is vigorously shaken. The vials are then centrifuged for 5 minutes at 12,000 g, and 200 μL of supernatant from each vial is transferred to a glass vial (vials crimp 0.2 mL), and the sealed vials are kept at 4° C. until LC-MS/MS analysis is performed. HAQs quantification is carried out analyzing samples in discrete batches together with spiked standards and blank samples. Calibration curves are constructed from HAQs standards, and respective deuterated forms are used as Internal Standards (IS), to calculate the concentration of analytes in the sample and improve the precision of the assay. The back-calculated concentrations of the calibration standards from the calibration curve shall be within ±20% of the nominal values, the range of the analytical method is determined, and the lower and upper limit of quantification specified.
as §1, with “using” for “using an”
(§4) The MS/MS analysis is performed with a API4000 series mass spectrometer (AB Sciex™) operating in Multiple Reaction Monitoring (MRM) mode and equipped with a TIS ion source. The specific ions monitored are PQS (m/z 260→m/z 175), D4-PQS (m/z 264→m/z 179), HHQ (m/z 244→m/z 159) and D4-HHQ (m/z 248→m/z 163). PQS and HHQ in presence of different test compound concentrations are expressed as percentage of inhibition of the basal level in control samples.

HHQ = test: Assay for HHQ Inhibition (6 Hour Incubation); format: cell-based, P. aeruginosa PA14 wild-type strain; conditions: Pseudomonas aeruginosa, PA14, 6 h, read-out: HHQ (6 hr) IC50 (μM)
Description: as §2, §3
as §1, with “using” for “using an”
as §4

Cc1cc(NCC(=O)Nc2ccc(C#N)c(Cl)c2)ccc1Br [Compound 153]
IC50 (Pyocyanin): > 10 µM | IC50 (PQS [1]): > 10 µM

Cc1cc(F)ccc1NC(=O)CNc1ccc(C#N)cc1 [Compound 154]
IC50 (Pyocyanin): > 10 µM | IC50 (PQS [1]): > 10 µM

N#Cc1ccc(NC(=O)CNc2ccc(F)cc2)cc1 [Compound 155]
IC50 (Pyocyanin): > 10 µM | IC50 (PQS [1]): > 10 µM

N#Cc1ccc(NC(=O)CNc2ccc(Cl)cc2)cc1 [Compound 156]
IC50 (Pyocyanin): > 10 µM | IC50 (PQS [1]): > 10 µM

N#Cc1ccc(NCC(=O)Nc2ccc(F)c(F)c2)nc1 [Compound 157]
IC50 (Pyocyanin): > 10 µM | IC50 (PQS [1]): > 10 µM

O=C(CNc1cccc(F)c1)Nc1cccc(Oc2ccccc2)c1 [Compound 158]
IC50 (Pyocyanin): > 10 µM | IC50 (PQS [1]): > 10 µM

O=C(CNc1nc2ccc(Cl)cc2[nH]1)Nc1ccc(Oc2cccnc2)cc1 [Compound 159, 2-((5-chloro-1H-benzo[d]imidazol-2-yl)amino)-N-(4-(pyridin-3-yloxy)phenyl)acetamide]
IC50 (Pyocyanin): 0.1 to 1 µM | IC50 (PQS [2]): < 1 µM | IC50 (HHQ): < 1 µM
